Experimental data published in patent US12617769B2, “Chemical compound as thyroid hormone beta receptor agonist and use thereof” (SUNSHINE LAKE PHARMA CO., LTD., priority 2019, dated 2026).

What was measured:
[1] = target: T1, TRα (Homo sapiens, UniProt P10827); assay: In vitro binding activity, LanthaScreen TR-FRET Thyroid Receptor alfa Coactivator Assay; details: TRα-LBD
T1 construct: Then 5 μL of 4×TRα-LBD or TRP-LBD; purchased Invitrogen PV4687
Method: (§1) 2. Detection of TRα or TRβ Binding Activity In Vitro of the Compound of the Present Invention
(§2) • LanthaScreen TR-FRET Thyroid Receptor beta Coactivator Assay kit was purchased from Invitrogen, Cat. No. PV4686; • LanthaScreen TR-FRET Thyroid Receptor alfa Coactivator Assay kit was purchased from Invitrogen, Cat. No. PV4687. Test Method:
(§3) This method was tested using LanthaScreen TR-FRET Thyroid Receptor beta/alfa Coactivator Assay kit. The test compound was dissolved in DMSO and diluted three-fold to obtain a total of 10 concentrations, then the compounds were diluted into solutions containing 2% DMSO with TR-FRET Coregulator Buffer C in the kit. 10 μL of the compounds containing 2% DMSO were taken to a 384-well plate. Then 5 μL of 4×TRα-LBD or TRP-LBD and 5 μL of a mixture containing 0.4 μM fluorescein-SRC2-2 and 8 nM Tb anti-GST antibody were added to each well. After mixing well, the compounds were incubated at room temperature in the dark for 1 h. After 1 h, the fluorescence value (RFU) was read at 520 nm and 495 nm using PHERAstar FSX microplate reader from BMG LABTECH. The emission signal at 520 nm was divided by the emission signal at 495 nm to calculate the TR-FRET ratio.

[2] = target: T2, TRβ (Homo sapiens, UniProt P10828); assay: In vitro binding activity, LanthaScreen TR-FRET Thyroid Receptor beta Coactivator Assay; details: TRβ-LBD
T2 construct: Then 5 μL of 4×TRα-LBD or TRP-LBD; purchased Invitrogen PV4686
T2 sequence (P10828 217-461 limits assumed): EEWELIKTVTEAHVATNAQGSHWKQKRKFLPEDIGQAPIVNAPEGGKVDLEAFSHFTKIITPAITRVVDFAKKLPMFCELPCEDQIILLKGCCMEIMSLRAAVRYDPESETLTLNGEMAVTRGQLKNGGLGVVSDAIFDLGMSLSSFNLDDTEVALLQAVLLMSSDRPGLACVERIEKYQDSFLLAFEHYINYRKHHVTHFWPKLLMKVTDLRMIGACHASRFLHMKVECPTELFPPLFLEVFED
Method: as §1, §2, §3

[3] = Pharmacokinetic determination in SD rats (plasma, LC/MS/MS); type: in vivo; details: SD rat; for pharmacokinetic properties (in words): intravenous injection or oral gavage, compared to control MGL3196; for AUC(0-t) / Cmax / Tmax / half-life: male, plasma
Description: Test purpose: The following method is used to determine the pharmacokinetics of the compounds of the present invention.
Experimental reagents and test compounds: Propranolol (internal standard), methanol, ammonium acetate, K2EDTA (potassium ethylenediamine tetraacetate), formic acid, acetonitrile, MTBE (methyl tert-butyl ether), KolliphorHS15 (polyethylene glycol 12 hydroxystearate), DMSO (dimethyl sulfoxide) are commercially available; • SD rat: male, 180-220 g, 7-8 weeks old, purchased from Hunan Slake Experimental Animal Co., Ltd. Test Method: 1. Preparation of Test Compounds
Each test compound prepared was completely dissolved in a mixture of 5% DMSO+5% KolliphorHS 15+90% Saline according solubility property thereof.
(1) Preparation of the test compound stock solution: an appropriate amount of test compound was precisely weighed, dissolved in DMSO, diluted to 1 mg/mL with acetonitrile, and shaken well to obtain the test compound stock solution, which was stored at −20° C. for use.
(2) Preparation of internal standard solution: a certain amount of 1 mg/mL Propranolol stock solution was precisely drawn and diluted to 100 ng/mL with water.
The liquid-liquid extraction method was used to process the samples for chromatographic separation. On a triple quadrupole tandem mass spectrometer, quantitative analysis was performed using multiple reactive ion monitoring (MRM), and the concentration were calculated using instrument quantitative software.
30 μL of plasma sample was accurately drawn, and added with 250 μL of internal standard. The mixture was mixed well by vortexing. The mixture was extracted once with 1 mL of MTBE, centrifuged at 13,000 rpm, 4° C. for 2 min, then 800 μL of supernatant was sucked, and evaporated in a 96-well nitrogen blower. The residue was re-dissolved with 150 μL of methanol/water (v/v=50/50), mixed by vortexing, and injected. The injection volume was 8 μL.
An appropriate amount of compound stock solution was accurately drawn, and diluted with acetonitrile to obtain standard series solution. 20 μL of each of the above standard series solutions was accurately drawn, added with 180 μL of blank plasma, and mixed well by vortexing to prepare plasma samples equivalent to plasma concentrations of 3, 5, 10, 30, 100, 300, 1,000, 3,000, 5,000, and 10,000 ng/mL, which were all processed according to “pretreatment of plasma samples”. Two samples were analyzed for each concentration to establish a standard curve.
The content of the test compound in the plasma of rats after administration of different compounds was determined by LC/MS/MS method.
Pharmacokinetic parameters were calculated using a noncompartmental method by WinNonLin 6.1 software.

T1 sequence (P10827 163-410 isoform P10827-2 limits assumed, other chains not shown): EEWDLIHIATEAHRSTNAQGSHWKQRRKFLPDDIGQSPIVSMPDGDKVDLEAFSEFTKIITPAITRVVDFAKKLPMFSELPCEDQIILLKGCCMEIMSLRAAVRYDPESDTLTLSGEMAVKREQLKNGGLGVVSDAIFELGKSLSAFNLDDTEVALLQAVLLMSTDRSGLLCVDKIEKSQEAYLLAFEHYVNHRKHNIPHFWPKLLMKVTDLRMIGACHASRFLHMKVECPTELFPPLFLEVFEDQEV

Structure (SMILES) | EC50 [1] [nM] | EC50 [2] [nM] | pharmacokinetic properties (in words) [3] | AUC(0-t) ([3]; po, ig, 5 mg/kg) [ng·h/mL] | Cmax ([3]; po, ig, 5 mg/kg) [ng/mL] | Tmax ([3]; po, ig, 5 mg/kg) [h] | half-life ([3]; po, ig, 5 mg/kg) [h] | AUC(0-t) ([3]; iv, 1 mg/kg) [ng·h/mL] | Cmax ([3]; iv, 1 mg/kg) [ng/mL] | Tmax ([3]; iv, 1 mg/kg) [h] | half-life ([3]; iv, 1 mg/kg) [h]
COC(=O)c1nn(-c2cc(Cl)c(Oc3ccc(=O)n(Cc4ccccc4)c3)c(Cl)c2)c(=O)[nH]c1=O [Example 16, Methyl 2-(4-((1-benzyl-6-oxo-1,6-dihydropyridin-3-yl)oxy)-3,5-dichlorophenyl)-3,5-dioxo-2,3,4,5-tetrahydro-1,2,4-triazine-6-carboxylate] | 16300 | 360 | excellent pharmacokinetic properties | 33600 | 12700 | 0.5 | 3.05 | 17400 | 17300 | 0.083 | 4
O=c1cnn(-c2cc(Cl)c(Oc3ccc(=O)n(Cc4ccccc4)c3)c(Cl)c2)c(=O)[nH]1 [Example 29, 2-(4-((1-benzyl-6-oxo-1,6-dihydropyridin-3-yl)oxy)-3,5-dichlorophenyl)-1,2,4-triazine-3,5-dione] | 370 | 11 | excellent pharmacokinetic properties | 115000 | 20000 | 0.417 | 2.89 | 16900 | 8920 | 0.083 | 2.38
O=c1cnn(-c2cc(Cl)c(Oc3ccc(=O)n(Cc4ccc(F)cc4)c3)c(Cl)c2)c(=O)[nH]1 [Example 36, 2-(3,5-dichloro-4-((1-(4-fluorobenzyl)-6-oxo-1,6-dihydropyridin-3-yl)oxy)phenyl)-1,2,4-triazine-3,5(2H,4H)-dione] | 92 | < 4.6 | – | – | – | – | – | – | – | – | –
Cc1cc(Oc2c(Cl)cc(-n3nc(C#N)c(=O)[nH]c3=O)cc2Cl)cn(Cc2ccccc2)c1=O [Example 37, 2-(4-((1-benzyl-5-methyl-6-oxo-1,6-dihydropyridin-3-yl)oxy)-3,5-dichlorophenyl)-3,5-dioxo-2,3,4,5-tetrahydro-1,2,4-triazine-6-carbonitrile] | > 100000 | 245 | – | – | – | – | – | – | – | – | –
N#Cc1nn(-c2cc(Cl)c(Oc3cc(Cl)c(=O)n(Cc4ccccc4)c3)c(Cl)c2)c(=O)[nH]c1=O [Example 38, 2-(4-((1-benzyl-5-chloro-6-oxo-1,6-dihydropyridin-3-yl)oxy)-3,5-dichlorophenyl)-3,5-dioxo-2,3,4,5-tetrahydro-1,2,4-triazine-6-carbonitrile] | > 33300 | 382 | – | – | – | – | – | – | – | – | –
CC(C)c1cc(Oc2c(Cl)cc(-n3nc(C#N)c(=O)[nH]c3=O)cc2Cl)n[nH]c1=O [MGL3196, reference compound] | – | – | – | 20700 | 2610 | 2 | 4.26 | 8840 | 5990 | 0.083 | 2.74
